Source: PubChem BioAssay (NCI)
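1) Cells in 96-well plates. 2) Compound, 48 h, 5 concentrations. 3) Linear interpolation between surrounding doses. 4) Unreached endpoint = highest concentration. TGI: concentration producing complete growth inhibition.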

What was measured:
Test in all cases: growth of human tumour cells (NCI), 48 h
RPMI-8226 leukemia = system: RPMI-8226 leukemia
CAKI-1 renal = system: CAKI-1 renal
SK-OV-3 ovarian = system: SK-OV-3 ovarian
PC-3 prostate = system: PC-3 prostate
OVCAR-4 ovarian = system: OVCAR-4 ovarian
EKVX NSCLC = system: EKVX NSCLC
KM12 colon = system: KM12 colon
MDA-MB-435 = system: MDA-MB-435
UACC-257 melanoma = system: UACC-257 melanoma
UO-31 renal = system: UO-31 renal
HCT-15 colon = system: HCT-15 colon
M14 melanoma = system: M14 melanoma
OVCAR-3 ovarian = system: OVCAR-3 ovarian
BT-549 breast = system: BT-549 breast
786-0 renal = system: 786-0 renal
T-47D breast = system: T-47D breast
SF-268 CNS = system: SF-268 CNS
A549 NSCLC = system: A549 NSCLC
SK-MEL-2 melanoma = system: SK-MEL-2 melanoma
HCT-116 colon = system: HCT-116 colon
MDA-MB-231 breast = system: MDA-MB-231 breast
OVCAR-8 ovarian = system: OVCAR-8 ovarian
LOX IMVI melanoma = system: LOX IMVI melanoma
NCI-H23 lung = system: NCI-H23 lung
SW-620 colon = system: SW-620 colon
TK-10 renal = system: TK-10 renal
SNB-75 CNS = system: SNB-75 CNS
U251 CNS = system: U251 CNS
SF-295 CNS = system: SF-295 CNS
MCF7 breast = system: MCF7 breast
SNB-19 CNS = system: SNB-19 CNS
HOP-92 NSCLC = system: HOP-92 NSCLC
RXF 393 renal = system: RXF 393 renal
NCI/ADR-RES ovarian = system: NCI/ADR-RES ovarian
COLO 205 colon = system: COLO 205 colon
UACC-62 melanoma = system: UACC-62 melanoma
HOP-62 NSCLC = system: HOP-62 NSCLC
NCI-H460 lung = system: NCI-H460 lung
HCC-2998 colon = system: HCC-2998 colon
SK-MEL-5 melanoma = system: SK-MEL-5 melanoma
CCRF-CEM leukemia = system: CCRF-CEM leukemia
SK-MEL-28 melanoma = system: SK-MEL-28 melanoma
ACHN renal = system: ACHN renal
A498 renal = system: A498 renal
OVCAR-5 ovarian = system: OVCAR-5 ovarian
DU-145 prostate = system: DU-145 prostate
K-562 leukemia = system: K-562 leukemia
MOLT-4 leukemia = system: MOLT-4 leukemia
NCI-H226 lung = system: NCI-H226 lung

Measured: TGI

Cc1cc(C)c(C#N)c(SC(=S)NC(=O)c2ccc(Cl)cc2)n1
> 100 µM: RPMI-8226 leukemia | CAKI-1 renal | SK-OV-3 ovarian | PC-3 prostate | OVCAR-4 ovarian | EKVX NSCLC | KM12 colon | MDA-MB-435 | UACC-257 melanoma | UO-31 renal | HCT-15 colon | M14 melanoma | OVCAR-3 ovarian | BT-549 breast | 786-0 renal | T-47D breast | SF-268 CNS | A549 NSCLC | SK-MEL-2 melanoma | HCT-116 colon | MDA-MB-231 breast | OVCAR-8 ovarian | LOX IMVI melanoma | NCI-H23 lung | SW-620 colon | TK-10 renal | SNB-75 CNS | U251 CNS | SF-295 CNS | MCF7 breast | SNB-19 CNS | HOP-92 NSCLC | RXF 393 renal | NCI/ADR-RES ovarian | COLO 205 colon | UACC-62 melanoma | HOP-62 NSCLC | NCI-H460 lung | HCC-2998 colon | SK-MEL-5 melanoma | CCRF-CEM leukemia | SK-MEL-28 melanoma | ACHN renal | A498 renal | OVCAR-5 ovarian | DU-145 prostate

Cc1ccc(C2c3c(n(C)c(=O)n(C)c3=O)OC(N(C)C)(N(C)C)C2(F)F)cc1 (centres undefined)
> 100 µM: RPMI-8226 leukemia | K-562 leukemia | CAKI-1 renal | SK-OV-3 ovarian | PC-3 prostate | OVCAR-4 ovarian | EKVX NSCLC | KM12 colon | MDA-MB-435 | UACC-257 melanoma | UO-31 renal | HCT-15 colon | M14 melanoma | OVCAR-3 ovarian | BT-549 breast | 786-0 renal | T-47D breast | SF-268 CNS | A549 NSCLC | SK-MEL-2 melanoma | HCT-116 colon | MDA-MB-231 breast | LOX IMVI melanoma | NCI-H23 lung | MOLT-4 leukemia | NCI-H226 lung | SW-620 colon | TK-10 renal | SNB-75 CNS | U251 CNS | SF-295 CNS | MCF7 breast | SNB-19 CNS | HOP-92 NSCLC | RXF 393 renal | NCI/ADR-RES ovarian | COLO 205 colon | UACC-62 melanoma | HOP-62 NSCLC | NCI-H460 lung | HCC-2998 colon | SK-MEL-5 melanoma | CCRF-CEM leukemia | SK-MEL-28 melanoma | ACHN renal | A498 renal | OVCAR-5 ovarian | DU-145 prostate
